Legend:
MMP-9 = test: Detection of MMP-2 and MMP-9 by gelatin zymography in conditioned media of cultured human foreskin keratinocytes; format: cell-based; conditions: HFKs; for concentration of LMB in the medium at which the production of MMP-9 is inhibited: 24 hours
Description: A foreskin of a neonate was treated at 4° C. for 16 hours by a disperse having a casein decomposition activity of 25.0 caseinolytic units/ml. Epidermal was peeled from dermis using a forceps, then, the epidermal was treated with 0.05% trypsin for 5 minutes. The separated human foreskin keratinocytes (HFKs) were allowed to incubate at 37° C. in a plate having a keratinocyte-SFM medium (manufactured by Invitrogen), and sub-cultured over three generations. Then, into four plates obtained by sub-culturing human foreskin keratinocytes (HFKs) over three generations, LMB was added so that the concentrations in the medium were 0 nM, 0.4 nM, 2 nM and 10 nM, respectively, further, allowed to incubate at 37° C. for 24 hours. Then, four conditioned media of the keratinocyte-SFM medium were collected from the four plates, and stored at −30° C. until use in the following detection of MMP-2 and MMP-9 by a gelatin zymography method.
Prior to detection of MMP-2 and MMP-9 by a gelatin zymography method, four conditioned media collected in <Culturing of human epidermal keratinocyte cell> were all allowed to incubate at 35° C. for 1 hour. Then, the above-mentioned conditioned media were dissolved in a solution of pH 7.4 containing 0.05 M Tris-HCl, 5 mM CaCl2, 1% SDS (sodium dodecyl-sulfate) and 5% glycerol, respectively, and the solutions were used as samples for a gelatin zymography method. MMP-2 and MMP-9 were separated from the samples by an SDS-PAGE method using 7.5% polyacrylamide gel containing 0.5% gelatin. After separation by an SDS-PAGE method, the separated gel was washed with a solution containing 2.5% Triton X-100 for 1 hour, to remove SDS. For allowing MMP-2 and MMP-9 separated in the separated gel to decompose gelatin in the separated gel, the separated gel was allowed to incubate at 35° C. for a given time in a buffer solution for reaction (standard conditions: 0.05 M Tris-HCl (pH 7.4)/0.15 M NaCl/5 MM CaCl2/0.02% NaN3). Staining of the separated gel was conducted using a staining solution containing 0.1% Amideblack B-10, and decolorization was conducted using a decolorization solution containing 10 vol % of acetic acid and 30 vol % of methanol.
(§1) Culturing of a human epidermal keratinocyte and detection of MMP-2 and MMP-9 by a gelatin zymography method were conducted by the same manner as in Example 1 except that LMB was added into four plates obtained by sub-culturing human foreskin keratinocytes (HFKS) over three generations, so that the concentrations in the medium were 0 nM, 0.4 nM, 2 nM and 10 nM, respectively, and a calcium chloride aqueous solution was added so that the four concentrations of Ca^+ in the medium were all 1.5 mM, instead of adding LMB into four plates obtained by sub-culturing human foreskin keratinocytes (HFKs) over three generations, so that the concentrations in the medium were 0 nM, 0.4 nM, 2 nM and 10 nM, respectively, in culturing of human epidermal keratinocyte.
as §1, with “(HFKs)” for “(HFKS)”, “TGF-β” for “a calcium chloride aqueous solution”, “TGF-β” for “Ca^+”, “1 ng/ml,” for “1.5 mM,”, “keratinocytes. […]” for “keratinocyte.”

mRNA of human MMP-9 gene = test: Detection of mRNA of human MMP-9 gene and human GAPDH gene by RT-PCR in human foreskin keratinocytes; format: cell-based; conditions: 10 nM LMB
Description: A foreskin of a neonate was treated at 4° C. for 16 hours by a disperse having a casein decomposition activity of 25.0 caseinolytic units/ml. Epidermal was peeled from dermis using a forceps, then, the epidermal was treated with 0.05% trypsin for 5 minutes. The separated human foreskin keratinocytes (HFKs) were allowed to incubate at 37° C. in a plate having a keratinocyte-SFM medium (manufactured by Invitrogen), and sub-cultured over three generations. Then, into two plates obtained by sub-culturing human foreskin keratinocytes (HFKS) over three generations, LMB was added so that the concentrations in the medium were 0 nM and 10 nM, respectively, further, allowed to incubate at 37° C. for 24 hours.
Extraction of all RNAs from cultured human foreskin keratinocytes (HFKs) was conducted according to a method of Wachi et al. (Wachi et al. (1995) FEBS Lett. 36B, 215-219), and the extracted all RNAs were stored at −80° C. in the form of solution having a concentration of 1 μg/ml. A RT-PCR method was conducted using TaKaRa RNA PCR kit (manufactured by TaKaRa). For amplifying 277 base pairs of cDNA for human MMP-9, a sense primer (SEQ ID No. 1) was used for the 5′ end situated at 116 to 136 base pairs, and an antisense primer (SEQ ID No. 2) was used for the 3′ end situated at 372 to 392 base pairs. For amplifying 478 base pairs of cDNA for human GAPDH, a sense primer (SEQ ID No. 3) was used for the 5′ end situated at 547 to 566 base pairs, and an antisense primer (SEQ ID No. 4) was used for the 3′ end situated at 1005 to 1024 base pairs. Reverse transcription of RNA was conducted by incubating at 42° C. for 1 hour. Incubation in PCR of cDNA obtained by reverse transcription was conducted according to the following temperature profile. Namely, for every one cycle, modification of cDNA was conducted at 94° C. for 2 minutes, annealing of a primer was conducted at 60° C. for 30 seconds, and synthesis of a DNA chain by a DNA polymerase was conducted at 72° C. for 1 minute. A solution obtained after 30 cycles was separated, and electrophoresis was conducted using an agarose gel containing ethidium bromide, and the resulted band was observed under ultraviolet ray.
Culturing of a human epidermal keratinocyte and detection of mRNA of a human MMP-9 gene and mRNA of a human GAPDH gene by a RT-PCR method were conducted by the same manner as in Example 6 except that LMB was added into two plates obtained by sub-culturing human foreskin keratinocytes (HFKs) over three generations, so that the concentrations in the medium were 0 nM and 10 nM, respectively, and a calcium chloride aqueous solution was added so that the two concentrations of Ca^+ in the medium were all 1.5 mM, instead of adding LMB into two plates obtained by sub-culturing human foreskin keratinocytes (HFKs) over three generations, so that the concentrations in the medium were 0 nM and 10 nM, respectively, in culturing of human epidermal keratinocytes. […]

MMP-9 promoter sequence = test: Measurement of MMP-9 promoter transcription activity by luciferase assay in human foreskin keratinocytes; format: cell-based; conditions: 10 nM LMB; for transcription activity of MMP-9: 24 hours; for Promoter activity suppressed to (fraction of no LMB addition): vector-1 containing KRE-M9 (−73 to +16)
Description: A foreskin of a neonate was treated at 4° C. for 16 hours by a disperse having a casein decomposition activity of 25.0 caseinolytic units/ml. Epidermal was peeled from dermis using a forceps, then, the epidermal was treated with 0.05% trypsin for 5 minutes. The separated human foreskin keratinocytes (HFKs) were allowed to incubate at 37° C. in a 24-well plate having a keratinocyte-SFM medium (manufactured by Life Technologies) containing 0.09 mM Ca^+, and sub-cultured over three generations.
A −73 to +16 base sequence containing KRE-M9 of an MMP-9 promoter sequence and a −56 to +16 base sequence containing no KRE-M9 were inserted into pGL3-basic vector (manufactured by Promega) which is a luciferase expression vector containing a luciferase gene according to a method of Kobayashi et al. (Kobayashi et al. (2001) EMBO Rep. 2, 604 to 608), to prepare vector-1 and vector-2.
Using the vector-1 and vector-2 and Fugene 6 (manufactured by Roche) which is a reagent for gene introduction, a vector-1 solution and a vector-2 solution each having a DNA concentration of 3 μg/1 ml were prepared, respectively. Then, the vector solution 1 was added to solutions in 12 wells and the vector solution 2 was added to solutions in the remaining 12 wells each at 37° C., of HFKs culture solutions in the 24-well plates obtained in <Culturing of human epidermal keratinocyte> and gene introduction was performed, further, 10 nM LMB was added to solutions in 6 wells to give a 6-well LMB added plate 1 and LMB was not added to solutions in the remaining 6 wells to give a 6-well LMB no-addition plate 1, of the 12 wells obtained by addition of the vector-1 solution, and 10 nM LMB was added to solutions in 6 wells to give a 6-well LMB added plate 2 and LMB was not added to solutions in the remaining 6 wells to give a 6-well LMB no-addition plate 2, of the 12 wells obtained by addition of the vector-2 solution, then, they were allowed to stand still for 3 hours. Gene introduction of a luciferase gene effected as described above induces the production of MMP-9 and the production of luciferase, and by measuring the light emitting intensity in a light emitting reaction by luciferase by a micro press counter, the production of MMP-9 can be monitored.
Measurement of the transcription activity was conducted by a luciferase assay. The activity of luciferase was measured by Luciferase assay system (manufactured by Promega). As a micro press counter, Microbeta (manufactured by Perkin-Elmer) was used. In this measurement, the total transcription activity after 12 hours was measured using 3 wells among 6 wells, further, the total transcription activity after 24 hours was measured using the remaining 3 wells, each using the 6-well LMB added plate 1, 6-well LMB no-addition plate 1, 6-well LMB added plate 2 and 6-well LMB no-addition plate 2. […] The standard deviation is shown by error bar. […]

[1] = system: skin of hairless mice (Hoes: HR-1); test: Ultraviolet B irradiated hairless mouse skin, external application, histology (hematoxylin and eosin); format: in vivo
Description: Ten 8-weeks old female hairless mice (Hoes: HR-1) were previously bred for 1 week. Five mice (mouse A1, mouse B1, mouse C1, mouse D1, mouse E1) were irradiated at the back with ultraviolet B (UV) of 300 mJ (about 3 MED (minimal erythema dose)), and five mice (mouse A2, mouse B2, mouse C2, mouse D2, mouse E2) were not irradiated with ultraviolet ray. Immediately after irradiation with ultraviolet ray and 24 hours after irradiation with ultraviolet ray, leptomycin B was administered by externally applying a solution of a concentration of 10 μg/ml (20 μM) to mouse B1 and mouse B2, a solution of a concentration of 1 μg/ml (2 μM) to mouse C1 and mouse C2, a solution of a concentration of 100 ng/ml (200 nM) to mouse D1 and mouse D2 and a solution of a concentration of 10 ng/ml (20 nM) to mouse E1 and mouse E2, each in an amount of 0.1 ml by a brush, as a solution containing leptomycin B dissolved in 70% ethanol. To mouse A1 and mouse A2, about 0.1 ml of 70% ethanol was applied by a brush. Then, skins were collected from mouse A1 to mouse E1 irradiated with ultraviolet ray 48 hours after irradiation and mouse A2 to mouse E2 not irradiated with ultraviolet ray. The collected skins were fixed with formalin and embedded in paraffin, then, the slices were stained with hematoxylin and eosin. Slices of skins collected from mouse A1, mouse B1, mouse C1, mouse D1 and mouse E1 and stained and slices of skins collected from mouse A2, mouse B2, mouse C2, mouse D2 and mouse E2 and stained were observed by ECLIPSE E1000M optical microscope (manufactured by NIKON), and the results are shown in FIG. 5. In FIG. 5, A1 to E1 correspond to slices of skins collected from mouse A1 to mouse E1 and stained, respectively, and A2 to E2 correspond to slices of skins collected from mouse A2 to mouse E2 and stained, respectively, and the length of a bar indicates 100 μm.

[2] = system: P388 cell, Lewis Landa carcinoma cell, B16 melanoma cell, Erich carcinoma cell; conditions: tumor cells transplanted to mouse; anti-tumor agent containing leptomycin B, parenteral or oral; cited from earlier work
[3] = UVB 300 mJ irradiated mice B1 to E1, external application 10 μg/ml to 10 ng/ml in 70% ethanol, 0.1 ml, at 0 and 24 hours, skin at 48 hours

Question: For `CCC(=C/[C@H](C)C/C=C/C(C)=C/[C@@H](C)C(=O)[C@@H](C)[C@H](O)[C@@H](C)C/C(C)=C/C(=O)O)/C=C/[C@@H]1OC(=O)C=C[C@@H]1C` [LMB, Leptomycin B], which “specificity of inhibition of the production of MMP-9 as compared with MMP-2” value (MMP-9; gelatin zymography, FIG. 1) is on record?
Answer: inhibits the production of MMP-9 more specifically as compared with MMP-2

Question: What about the “concentration of LMB in the medium at which the production of MMP-9 is inhibited” value (from here on “concentration of LMB … of MMP-9 is inhibited”) (MMP-9; stimulating differentiation by TGF-β 1 ng/ml, FIG. 1 (C)) of the same compound?
Answer: ≥ 2 nM

Question: And the “concentration of LMB … of MMP-9 is inhibited” value (MMP-9; stimulating differentiation by calcium at a high concentration (1.5 mM), FIG. 1 (B))?
Answer: ≥ 2 nM

Question: And the “concentration of LMB … of MMP-9 is inhibited” value (MMP-9; stimulating inflammation by IL-1α 10^−10 M, FIG. 1 (E))?
Answer: ≥ 2 nM

Question: What about the “concentration of LMB … of MMP-9 is inhibited” value (MMP-9; stimulating inflammation by TNF-α 10 ng/ml, FIG. 1 (D)) of the same compound?
Answer: ≥ 2 nM

Question: And the “concentration of LMB … of MMP-9 is inhibited” value (MMP-9; under no stimulation, FIG. 1 (A))?
Answer: ≥ 2 nM

Question: And the “production of MMP-9 (mRNA) as compared with GAPDH” value (shortened to “production … compared with GAPDH”) (mRNA of human MMP-9 gene; stimulation with IL-1α 10^−10 M, Sample 9 and 10 in FIG. 2)?
Answer: inhibited

Question: What about the “production … compared with GAPDH” value (mRNA of human MMP-9 gene; stimulation with TGF-β 1 ng/ml, Sample 5 and 6 in FIG. 2) of the same compound?
Answer: inhibited

Question: And the “production … compared with GAPDH” value (mRNA of human MMP-9 gene; stimulation with TNF-α 10 ng/ml, Sample 7 and 8 in FIG. 2)?
Answer: inhibited

Question: What about the “production … compared with GAPDH” value (mRNA of human MMP-9 gene; stimulation with calcium at a high concentration (1.5 mM), Sample 3 and 4 in FIG. 2) of the same compound?
Answer: inhibited

Question: What about the “production … compared with GAPDH” value (mRNA of human MMP-9 gene; under no stimulation, 24 hours, Sample 1 and 2 in FIG. 2) of the same compound?
Answer: inhibited

Question: And the “transcription activity of MMP-9” value (MMP-9 promoter sequence; base sequence 1 (−80 to +16, KRE-M9 and TRE), FIG. 4 (A))?
Answer: suppressed

Question: What about the “transcription activity of MMP-9” value (MMP-9 promoter sequence; base sequence 2 (4-base substitution of KRE-M9 in base sequence 1), FIG. 4 (A)) of the same compound?
Answer: suppressed

Question: What about the “transcription activity of MMP-9” value (MMP-9 promoter sequence; base sequence 6 (base substitution of both KRE-M9 and TRE), FIG. 4 (B)) of the same compound?
Answer: suppressed

Question: And the “Promoter activity suppressed to (fraction of no LMB addition)” value (MMP-9 promoter sequence; 12 hours after gene introduction)?
Answer: about one-fifth

Question: And the “Promoter activity suppressed to (fraction of no LMB addition)” value (MMP-9 promoter sequence; 24 hours after gene introduction)?
Answer: about one-seventh

Question: And the “inflammatory cell infiltration in dermis and subcutaneous tissue” value [1, 3]?
Answer: suppressed

Question: And the keratinization of epidermal [1, 3]?
Answer: normal keratinization is manifested in epidermal in a concentration-dependent manner

Question: And the “change of skin not irradiated with ultraviolet ray” value ([1]; mice B2 to E2 not irradiated, external application 10 μg/ml to 10 ng/ml in 70% ethanol)?
Answer: significant change was not found

Question: What about the anti-tumor action [2] of the same compound?
Answer: strong anti-tumor action
